In US9463256B2, “Pretargeting kit, method and agents used therein” (KONINKLIJKE PHILIPS N.V., priority 2010, dated 2016):

System: LS174T tumor model
Test: Biodistribution experiments in tumor bearing mice pretargeted with CC49-TCO constructs
Type: in vivo, Nude female Balb/C mice
Details: 3 h after injection
Description: LS174T tumor model. The human colon cancer cell line LS174T was obtained from the ATCC and maintained in Eagle's minimal essential medium (Sigma) supplemented with 10% heat inactivated fetal calf serum (Gibco), penicillin (100 U/mL), streptomycin (100 μg/mL) and 2 mM Glutamax. Nude female Balb/C mice (20-25 g body weight, Charles River Laboratories) were inoculated subcutaneously with 5×10^6 cells in 100 μL sterile PBS.
Dual isotope biodistribution experiments were performed by injecting tumor bearing mice (n=3) intravenously with ^125I-labeled CC49-TCO constructs with and without PEG10 spacer (100 μg/100 μL per mouse, ca. […] 0.8 MBq). Three hours after tetrazine administration, the animals were anesthetized with isoflurane and sacrificed by cervical dislocation. Blood was withdrawn by heart puncture and organs and tissues of interest were harvested, blotted dry and weighed. The radioactivity of the samples was measured in a γ-counter along with standards to determine the % ID/gram. The energy windows were set to 10-80 keV and 100-510 keV for ^125I and ^111In, respectively.

[1] = 1 day pretargeting with CC49-14b
[2] = 1 day pretargeting with CC49-20a
[3] = 1 day pretargeting with CC49-20b
[4] = 3 days pretargeting with CC49-14b
[5] = 3 days pretargeting with CC49-20a

Compound: O=C([O-])CN1CCN(CC(=O)[O-])CCN(CC(=O)NCCOCCOCCOCCOCCOCCOCCOCCOCCOCCOCCOCCNC(=O)CCCC(=O)Nc2ccc(-c3nnc(-c4ccccn4)nn3)nc2)CCN(CC(=O)[O-])CC1.[111In+3] [^111In-tetrazine 28]
- ^111In-tetrazine in Blood [1]: 1.12 ± 0.09 % ID/gram
- ^111In-tetrazine in Bone [1]: 0.27 ± 0.08 % ID/gram
- ^111In-tetrazine in Brain [1]: 0.05 ± 0.01 % ID/gram
- ^111In-tetrazine in Heart [1]: 0.46 ± 0.12 % ID/gram
- ^111In-tetrazine in Kidney [1]: 3.12 ± 0.33 % ID/gram
- ^111In-tetrazine in Liver [1]: 1.17 ± 0.35 % ID/gram
- ^111In-tetrazine in Lung [1]: 0.79 ± 0.24 % ID/gram
- ^111In-tetrazine in Muscle [1]: 0.22 ± 0.07 % ID/gram
- ^111In-tetrazine in Spleen [1]: 0.53 ± 0.14 % ID/gram
- ^111In-tetrazine in Tumor [1]: 2.59 ± 0.35 % ID/gram
- ^111In-tetrazine in Blood [2]: 2.39 ± 1.77 % ID/gram
- ^111In-tetrazine in Bone [2]: 0.33 ± 0.16 % ID/gram
- ^111In-tetrazine in Brain [2]: 0.10 ± 0.06 % ID/gram
- ^111In-tetrazine in Heart [2]: 0.84 ± 0.71 % ID/gram
- ^111In-tetrazine in Kidney [2]: 2.84 ± 0.35 % ID/gram
- ^111In-tetrazine in Liver [2]: 2.05 ± 1.03 % ID/gram
- ^111In-tetrazine in Lung [2]: 1.13 ± 0.55 % ID/gram
- ^111In-tetrazine in Muscle [2]: 0.33 ± 0.22 % ID/gram
- ^111In-tetrazine in Spleen [2]: 0.83 ± 0.46 % ID/gram
- ^111In-tetrazine in Tumor [2]: 2.40 ± 0.16 % ID/gram
- ^111In-tetrazine in Blood [3]: 1.61 ± 0.45 % ID/gram
- ^111In-tetrazine in Bone [3]: 0.40 ± 0.05 % ID/gram
- ^111In-tetrazine in Brain [3]: 0.07 ± 0.01 % ID/gram
- ^111In-tetrazine in Heart [3]: 0.50 ± 0.04 % ID/gram
- ^111In-tetrazine in Kidney [3]: 3.39 ± 0.84 % ID/gram
- ^111In-tetrazine in Liver [3]: 1.41 ± 0.45 % ID/gram
- ^111In-tetrazine in Lung [3]: 0.97 ± 0.16 % ID/gram
- ^111In-tetrazine in Muscle [3]: 0.24 ± 0.06 % ID/gram
- ^111In-tetrazine in Spleen [3]: 0.65 ± 0.12 % ID/gram
- ^111In-tetrazine in Tumor [3]: 3.42 ± 0.40 % ID/gram
- ^111In-tetrazine in Blood [4]: 0.54 ± 0.11 % ID/gram
- ^111In-tetrazine in Bone [4]: 0.20 ± 0.07 % ID/gram
- ^111In-tetrazine in Brain [4]: 0.03 ± 0.01 % ID/gram
- ^111In-tetrazine in Heart [4]: 0.24 ± 0.07 % ID/gram
- ^111In-tetrazine in Kidney [4]: 2.82 ± 0.28 % ID/gram
- ^111In-tetrazine in Liver [4]: 0.84 ± 0.21 % ID/gram
- ^111In-tetrazine in Lung [4]: 0.50 ± 0.11 % ID/gram
- ^111In-tetrazine in Muscle [4]: 0.16 ± 0.04 % ID/gram
- ^111In-tetrazine in Spleen [4]: 0.34 ± 0.09 % ID/gram
- ^111In-tetrazine in Tumor [4]: 2.76 ± 1.36 % ID/gram
- ^111In-tetrazine in Blood [5]: 0.79 ± 0.39 % ID/gram
- ^111In-tetrazine in Bone [5]: 0.15 ± 0.00 % ID/gram
- ^111In-tetrazine in Brain [5]: 0.26 ± 0.11 % ID/gram
- ^111In-tetrazine in Heart [5]: 0.30 ± 0.03 % ID/gram
- ^111In-tetrazine in Kidney [5]: 3.16 ± 0.57 % ID/gram
- ^111In-tetrazine in Liver [5]: 0.88 ± 0.13 % ID/gram
- ^111In-tetrazine in Lung [5]: 0.58 ± 0.07 % ID/gram
